Values quoted from earlier work in US20210196697A1, “COMBINATION THERAPIES FOR TREATING BIPOLAR DISORDER AND ADHD, AND METHODS FOR USING THE SAME” (PsychNostics, LLC, priority 2017, published 2021).

How the values were obtained:
[1] = tested on: SK-N-SH Neuroblastoma Cells; conditions: addition of carbachol to [3H]cytidine-prelabeled cells

For `[Li]` [Li, lithium], the therapeutic level (lithium in BD patients) is given as “around 1.2 mM” and the toxic level (lithium in BD patients) is given as “about 2 mM”.
In the case of `COC(=O)C(c1ccccc1)C1CCCCN1` (centres unmarked) [MPH, methylphenidate], the “effect on MPR” value (ADHD patients) is given as “reduces the MPR in a dose dependant manner”.
In the case of `C[N+](C)(C)CCOC(N)=O` [carbachol], the “accumulation of labeled CDP-DAG” value [1] is given as “four to fivefold increase”.
In the case of `CN1CCN(C2=Nc3cc(Cl)ccc3Nc3ccccc32)CC1` [clozapine], the “therapeutic level / therapeutic reference range” value (serum / blood plasma) is given as 200 to 1000 ng/mL.
